Experimental data: patent US20250171438A1 (Agios Pharmaceuticals, Inc., priority 2022, published 2025)

target: T1, human PAH with the R408W mutation (Homo sapiens, UniProt P00439, R408W); assay: Cell Based Phenylalanine Flux Assay; conditions: A375 cells expressing human R408W PAH; 24 hrs with compound; 13C-Tyrosine by LC-MS; average where tested multiple times; read-out: AC50
T1 construct: expressed in transfected cells
T1 sequence (P00439 1-452 R408W): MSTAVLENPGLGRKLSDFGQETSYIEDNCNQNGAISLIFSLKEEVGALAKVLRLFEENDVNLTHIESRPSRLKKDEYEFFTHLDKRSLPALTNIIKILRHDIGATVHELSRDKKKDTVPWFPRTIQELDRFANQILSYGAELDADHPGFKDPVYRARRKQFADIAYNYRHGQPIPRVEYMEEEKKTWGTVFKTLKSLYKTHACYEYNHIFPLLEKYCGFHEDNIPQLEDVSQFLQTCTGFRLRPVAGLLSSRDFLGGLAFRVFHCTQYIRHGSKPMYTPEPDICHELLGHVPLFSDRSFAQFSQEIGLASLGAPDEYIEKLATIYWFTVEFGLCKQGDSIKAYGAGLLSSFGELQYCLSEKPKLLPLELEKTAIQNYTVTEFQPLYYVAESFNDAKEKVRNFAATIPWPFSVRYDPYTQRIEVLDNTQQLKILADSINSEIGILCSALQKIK
Description: Compounds were resuspended in DMSO, and 2-fold serial dilutions were performed to generate a 10-point dose curve. Compounds were added to plated cells in a total volume of 100 pal, and a final DMSO concentration of 0.5%. Each compound was tested in duplicate. Following compound addition, cells were placed in a 5% CO2, 37° C. tissue culture incubator for 24 hrs. After the incubation period, 20 μM sepiapterin and 800 μM 13C9,15N-Phenylalanine were added. After 4 hours, cell media was removed. An aliquot of 10 μl of cell media was combined with 200 μl of extraction buffer (80% acetonitrile/20% H2O) for each well. Determination of ^13C-Tyrosine concentration was assessed by liquid chromatography mass spectrometry.
Where a compound was tested multiple times, the average value of the tests is reported.

Row | Structure (SMILES) | AC50 [µM]
1 | Cc1nnc(CC(=O)N2CCc3[nH]cnc3[C@H]2c2nc3ccccc3[nH]2)s1 [(S)-1-(4-(1H-benzo[d]imidazol-2-yl)-1,4,6,7-tetrahydro-5H-imidazo[4,5-c]pyridin-5-yl)-2-(5-methyl-1,3,4-thiadiazol-2-yl)ethan-1-one] | > 5
2 | O=C(CCc1nc(Cl)cs1)N1CCc2[nH]cnc2[C@H]1c1nc2ccccc2[nH]1 [(S)-1-(4-(1H-benzo[d]imidazol-2-yl)-1,4,6,7-tetrahydro-5H-imidazo[4,5-c]pyridin-5-yl)-3-(4-chlorothiazol-2-yl)propan-1-one] | 1 to 5
3 | Cc1csc(CCC(=O)N2CCc3[nH]cnc3[C@H]2c2nc3ccccc3[nH]2)n1 [(S)-1-(4-(1H-benzo[d]imidazol-2-yl)-1,4,6,7-tetrahydro-5H-imidazo[4,5-c]pyridin-5-yl)-3-(4-methylthiazol-2-yl)propan-1-one] | 1 to 5
4 | O=C(CCc1nnc(Br)s1)N1CCc2[nH]cnc2[C@H]1c1nc2ccccc2[nH]1 [(S)-1-(4-(1H-benzo[d]imidazol-2-yl)-1,4,6,7-tetrahydro-5H-imidazo[4,5-c]pyridin-5-yl)-3-(5-bromo-1,3,4-thiadiazol-2-yl)propan-1-one] | 1 to 5
5 | CCc1nnc(CCC(=O)N2CCc3[nH]cnc3[C@H]2c2nc3ccccc3[nH]2)s1 [(S)-1-(4-(1H-benzo[d]imidazol-2-yl)-1,4,6,7-tetrahydro-5H-imidazo[4,5-c]pyridin-5-yl)-3-(5-ethyl-1,3,4-thiadiazol-2-yl)propan-1-one] | 1 to 5
6 | Cc1cnc(CCC(=O)N2CCc3[nH]cnc3[C@H]2c2nc3ccccc3[nH]2)s1 [(S)-1-(4-(1H-benzo[d]imidazol-2-yl)-1,4,6,7-tetrahydro-5H-imidazo[4,5-c]pyridin-5-yl)-3-(5-methylthiazol-2-yl)propan-1-one] | 1 to 5
7 | O=C(CCc1nc2ccccc2s1)N1CCc2[nH]cnc2[C@H]1c1nc2ccccc2[nH]1 [(S)-1-(4-(1H-benzo[d]imidazol-2-yl)-1,4,6,7-tetrahydro-5H-imidazo[4,5-c]pyridin-5-yl)-3-(benzo[d]thiazol-2-yl)propan-1-one] | 1 to 5
8 | O=C(CCc1cscn1)N1CCc2[nH]cnc2[C@H]1c1nc2ccccc2[nH]1 [(S)-1-(4-(1H-benzo[d]imidazol-2-yl)-1,4,6,7-tetrahydro-5H-imidazo[4,5-c]pyridin-5-yl)-3-(thiazol-4-yl)propan-1-one] | 1 to 5
9 | O=C(CCc1cncs1)N1CCc2[nH]cnc2[C@H]1c1nc2ccccc2[nH]1 [(S)-1-(4-(1H-benzo[d]imidazol-2-yl)-1,4,6,7-tetrahydro-5H-imidazo[4,5-c]pyridin-5-yl)-3-(thiazol-5-yl)propan-1-one] | > 5
10 | O=C(CCCc1ccc(F)cc1)N1CCc2[nH]cnc2[C@H]1c1nc2ccccc2[nH]1 [(S)-1-(4-(1H-benzo[d]imidazol-2-yl)-1,4,6,7-tetrahydro-5H-imidazo[4,5-c]pyridin-5-yl)-4-(4-fluorophenyl)butan-1-one] | 1 to 5
11 | O=C(CCCc1nc2ccccc2s1)N1CCc2[nH]cnc2[C@H]1c1nc2ccccc2[nH]1 [(S)-1-(4-(1H-benzo[d]imidazol-2-yl)-1,4,6,7-tetrahydro-5H-imidazo[4,5-c]pyridin-5-yl)-4-(benzo[d]thiazol-2-yl)butan-1-one] | 1 to 5
12 | O=C(CCCc1nccs1)N1CCc2[nH]cnc2[C@H]1c1nc2ccccc2[nH]1 [(S)-1-(4-(1H-benzo[d]imidazol-2-yl)-1,4,6,7-tetrahydro-5H-imidazo[4,5-c]pyridin-5-yl)-4-(thiazol-2-yl)butan-1-one] | 1 to 5
13 | O=C(Cn1cncn1)N1CCc2[nH]cnc2[C@H]1c1nc2ccccc2[nH]1 [(S)-1-(4-(1H-benzo[d]imidazol-2-yl)-6,7-dihydro-1H-imidazo[4,5-c]pyridin-5(4H)-yl)-2-(1H-1,2,4-triazol-1-yl)ethanone] | > 5
14 | O=C(Cc1coc(C(F)F)n1)N1CCc2[nH]cnc2[C@H]1c1nc2ccccc2[nH]1 [(S)-1-(4-(1H-benzo[d]imidazol-2-yl)-6,7-dihydro-1H-imidazo[4,5-c]pyridin-5(4H)-yl)-2-(2-(difluoromethyl)oxazol-4-yl)ethanone] | 1 to 5
15 | Cc1ncc(CC(=O)N2CCc3[nH]cnc3[C@H]2c2nc3ccccc3[nH]2)o1 [(S)-1-(4-(1H-benzo[d]imidazol-2-yl)-6,7-dihydro-1H-imidazo[4,5-c]pyridin-5(4H)-yl)-2-(2-methyloxazol-5-yl)ethanone] | > 5
16 | Cc1ncoc1CC(=O)N1CCc2[nH]cnc2[C@H]1c1nc2ccccc2[nH]1 [(S)-1-(4-(1H-benzo[d]imidazol-2-yl)-6,7-dihydro-1H-imidazo[4,5-c]pyridin-5(4H)-yl)-2-(4-methyloxazol-5-yl)ethanone] | 1 to 5
17 | O=C(Cc1cnco1)N1CCc2[nH]cnc2[C@H]1c1nc2ccccc2[nH]1 [(S)-1-(4-(1H-benzo[d]imidazol-2-yl)-6,7-dihydro-1H-imidazo[4,5-c]pyridin-5(4H)-yl)-2-(oxazol-5-yl)ethanone] | > 5

Row | Structure (SMILES) | AC50 [µM]
18 | O=C(Cc1cnn2ccccc12)N1CCc2[nH]cnc2[C@H]1c1nc2ccccc2[nH]1 [(S)-1-(4-(1H-benzo[d]imidazol-2-yl)-6,7-dihydro-1H-imidazo[4,5-c]pyridin-5(4H)-yl)-2-(pyrazolo[1,5-a]pyridin-3-yl)ethanone] | 1 to 5
19 | O=C(Cc1ccccn1)N1CCc2[nH]cnc2[C@H]1c1nc2ccccc2[nH]1 [(S)-1-(4-(1H-benzo[d]imidazol-2-yl)-6,7-dihydro-1H-imidazo[4,5-c]pyridin-5(4H)-yl)-2-(pyridin-2-yl)ethanone] | 1 to 5
20 | O=C(Cc1cscn1)N1CCc2[nH]cnc2[C@H]1c1nc2ccccc2[nH]1 [(S)-1-(4-(1H-benzo[d]imidazol-2-yl)-6,7-dihydro-1H-imidazo[4,5-c]pyridin-5(4H)-yl)-2-(thiazol-4-yl)ethanone] | 1 to 5
21 | O=C(Cc1cncs1)N1CCc2[nH]cnc2[C@H]1c1nc2ccccc2[nH]1 [(S)-1-(4-(1H-benzo[d]imidazol-2-yl)-6,7-dihydro-1H-imidazo[4,5-c]pyridin-5(4H)-yl)-2-(thiazol-5-yl)ethanone] | 1 to 5
22 | N#Cc1ccn2ncc(C(=O)N3CCc4[nH]cnc4[C@H]3c3nc4ccccc4[nH]3)c2c1 [(S)-3-(4-(1H-benzo[d]imidazol-2-yl)-4,5,6,7-tetrahydro-1H-imidazo[4,5-c]pyridine-5-carbonyl)pyrazolo[1,5-a]pyridine-5-carbonitrile] | > 5
23 | O=C(c1nc2ccccc2[nH]1)N1CCc2[nH]cnc2[C@H]1c1nc2ccccc2[nH]1 [(S)-(4-(1H-benzo[d]imidazol-2-yl)-1,4,6,7-tetrahydro-5H-imidazo[4,5-c]pyridin-5-yl)(1H-benzo[d]imidazol-2-yl)methanone] | 1 to 5
24 | O=C(c1n[nH]c2ccccc12)N1CCc2[nH]cnc2[C@H]1c1nc2ccccc2[nH]1 [(S)-(4-(1H-benzo[d]imidazol-2-yl)-1,4,6,7-tetrahydro-5H-imidazo[4,5-c]pyridin-5-yl)(1H-indazol-3-yl)methanone] | > 5
25 | COc1cccc(C(=O)N2CCc3[nH]cnc3[C@H]2c2nc3ccccc3[nH]2)c1 [(S)-(4-(1H-benzo[d]imidazol-2-yl)-1,4,6,7-tetrahydro-5H-imidazo[4,5-c]pyridin-5-yl)(3-methoxyphenyl)methanone] | 1 to 5
26 | O=C(c1nc2c(F)cccc2s1)N1CCc2[nH]cnc2[C@H]1c1nc2ccccc2[nH]1 [(S)-(4-(1H-benzo[d]imidazol-2-yl)-1,4,6,7-tetrahydro-5H-imidazo[4,5-c]pyridin-5-yl)(4-fluorobenzo[d]thiazol-2-yl)methanone] | 1 to 5
27 | O=C(c1cnn2cccc(F)c12)N1CCc2[nH]cnc2[C@H]1c1nc2ccccc2[nH]1 [(S)-(4-(1H-benzo[d]imidazol-2-yl)-1,4,6,7-tetrahydro-5H-imidazo[4,5-c]pyridin-5-yl)(4-fluoropyrazolo[1,5-a]pyridin-3-yl)methanone] | 1 to 5
28 | Cc1csc(C(=O)N2CCc3[nH]cnc3[C@H]2c2nc3ccccc3[nH]2)n1 [(S)-(4-(1H-benzo[d]imidazol-2-yl)-1,4,6,7-tetrahydro-5H-imidazo[4,5-c]pyridin-5-yl)(4-methylthiazol-2-yl)methanone] | 1 to 5
29 | Cc1cnc(C(=O)N2CCc3[nH]cnc3[C@H]2c2nc3ccccc3[nH]2)s1 [(S)-(4-(1H-benzo[d]imidazol-2-yl)-1,4,6,7-tetrahydro-5H-imidazo[4,5-c]pyridin-5-yl)(5-methylthiazol-2-yl)methanone] | 1 to 5
30 | O=C(c1cnn2cc(Br)ccc12)N1CCc2[nH]cnc2[C@H]1c1nc2ccccc2[nH]1 [(S)-(4-(1H-benzo[d]imidazol-2-yl)-1,4,6,7-tetrahydro-5H-imidazo[4,5-c]pyridin-5-yl)(6-bromopyrazolo[1,5-a]pyridin-3-yl)methanone] | 1 to 5
31 | O=C(C1CCCCC1)N1CCc2[nH]cnc2[C@H]1c1nc2ccccc2[nH]1 [(S)-(4-(1H-benzo[d]imidazol-2-yl)-1,4,6,7-tetrahydro-5H-imidazo[4,5-c]pyridin-5-yl)(cyclohexyl)methanone] | 1 to 5
32 | O=C(C1CCCC1)N1CCc2[nH]cnc2[C@H]1c1nc2ccccc2[nH]1 [(S)-(4-(1H-benzo[d]imidazol-2-yl)-1,4,6,7-tetrahydro-5H-imidazo[4,5-c]pyridin-5-yl)(cyclopentyl)methanone] | 1 to 5
33 | O=C(C1CC1)N1CCc2[nH]cnc2[C@H]1c1nc2ccccc2[nH]1 [(S)-(4-(1H-benzo[d]imidazol-2-yl)-1,4,6,7-tetrahydro-5H-imidazo[4,5-c]pyridin-5-yl)(cyclopropyl)methanone] | 1 to 5
